Data published in paper PMC8467532, “DYRK1A Kinase Inhibitors Promote β-Cell Survival and Insulin Homeostasis” (Cells, 2021).
Read-outs that look alike come from different tables or passages of the source.

What was measured:
DYRK1A kinase domain = target: T1, DYRK1A kinase domain (Homo sapiens, UniProt Q13627); experiment: MST direct binding assay; details: MST direct binding, 20 nM fluorescent-labelled DYRK1A kinase domain
T1 construct: kinase domain of DYRK1A (126–490) was cloned into pET24a with C-terminal His-tag; made in house; host or cells: E. coli BL21 (DE3) RIL

DYRK1A [1] = target: T2, DYRK1A (Homo sapiens, UniProt Q13627); experiment: Cook activity assay (ATP regenerative NADH consuming DYRK1A activity assay); type: biochemical; details: Cook assay
T2 construct: kinase domain of DYRK1A (126–490) was cloned into pET24a with C-terminal His-tag; His-tag (C); made in house; host or cells: E. coli BL21 (DE3) RIL

NFAT = NFAT luciferase reporter assay in HEK 293 NFAT cell line expressing DYRK1A; type: cell-based; details: various concentrations, 30 min, then ionomycin/PMA 5 h
Description: The Renilla luciferase reporter assay was performed in HEK 293 NFAT cell line, constitutively expressing DYRK1A, NFAT and Renilla luciferase under the control of an NFAT-RE promoter. The cells were seeded at 10,000 per well in 96-well white plates (Cellstar, Greiner; Burlington, MA, United States). The following day cells were incubated with the indicated concentration of inhibitor for 30 min, then the medium was changed, and cells were stimulated with 1 μM ionomycin and 10 nM PMA for 5 h. Next, the cell lysate was harvested to measure luciferase activity with Renilla-Glo Luciferase Assay System (Promega, Wisconsin, United States). All experiments were carried out in triplicates.

INS-1E and MIN6 cells [2] = experiment: Ki67 proliferation analysis; type: cell-based, rat, mouse
DYRK1A [3] = target: T2, DYRK1A; details: cited from earlier work
INS-1E cells = experiment: MTT cytotoxicity and cell survival assay, INS-1E; type: cell-based, rat; details: 24 h, 0 to 100 μM
DYRK1A in MIN6 cell line = experiment: DYRK1A expression by flow cytometry and confocal imaging; type: cell-based, mouse
Description: (§1) The presence of insulin, glucagon, C-peptide, Ki67, and DYRK1A was assessed in MIN6 and INS-1E pancreatic cell lines. Before imaging, cells were seeded onto slides at a density of 1 × 10^5 cells and maintained at 37 °C in 95% atmospheric air and 5% CO2 in a humidified atmosphere for 24 h. After washing with fresh medium, cells were incubated with 5 µM inhibitor solution for 24 h. After this time, the solution was replaced with a culture medium for another 48 h. The cells were fixed. Then after washing and permeabilization, they were incubated with specific antibodies diluted in PBS. Next, the cells were incubated for 10 min with Hoechst33342 (Sigma-Aldrich). After incubation, at 37 °C, in the dark, the cells were washed twice with HBSS (Gibco), the slide was transferred to a microscope table, and the cells were visualized under a Zeiss LSM 880 confocal microscope (Carl Zeiss, Jena, Germany) with a 63× immersion objective. Images were analyzed by Zeiss ZEN Software.
(§2) The presence of insulin, glucagon, C-peptide, Ki67 and DYRK1A was assessed in MIN6 and INS-1E pancreatic cell lines. Before analysis, cells were seeded onto slides at a density of 1 × 10^5 cells and maintained at 37 °C in 95% atmospheric air and 5% CO2 in a humidified atmosphere for 24 h. After washing with fresh medium, cells were incubated with 5 µM inhibitor solution for 24 h. After this time, the solution was replaced with a culture medium for another 48 h. The cells were then detached from the plate using trypsin. The cells were fixed. Then after washing and permeabilization, they were incubated with specific antibodies diluted in PBS. Cells were analyzed with BDAccuri flow cytometer and calculated using FlowJo software (Ashland, Oregon-based FlowJo LLC, a subsidiary of Becton Dickinson).

INS-1E and MIN6 cells [4] = experiment: GSIS and insulin, C-peptide, glucagon staining (flow cytometry, confocal); type: cell-based, rat, mouse; parameters: key to insulin+ / glucagon+ / C-peptide+: ↑: moderate; ↑↑: most potent
Description: Cells were cultured in a low glucose medium (5.5 mM) for 24 h. After this medium was changed to lower glucose medium (2 mM) for 2 h and then for high glucose medium (25 mM) for 30 min, media were harvested and/or cells were used for further analysis.
as §1, §2

[5] = system: hiPSC-derived pancreatic organoids; experiment: Insulin secretion assay in hiPSC-derived β-cell organoids (ELISA); type: cell-based, human; parameters: key to insulin secretion (ELISA): ↑: moderate; ↑↑: most potent
Description: Differentiation of hiPSC into iPSC-derived β-cell islets was carried out following the protocol established by Pellegrini et al. for pluripotent stem cells with slight modifications. A day before differentiation, 800,000 cells were seeded on coated with Geltrex (Gibco) 12 wells plate in Essential 8 medium (Gibco) with Y-27632 10 µM (Abcam). The following culture media were used for differentiation:
M1 medium: MCDB131 (Gibco) + 8 mM D-(þ)-Glucose (Sigma) + 1.23 g/L NaHCO3 (Sigma) + 2% BSA (Sigma) + 0.25 mM Vitamin C (Sigma) + 1% Pen/Strep (Lonza, Basel, Switzerland) + 1% L-glutamine (Lonza);
M2 medium: MCDB131 + 20 mM D-Glucose + 1.754 g/L NaHCO3 + 2% BSA + 0.25 mM Vitamin C + Heparin 10mg/mL (Sigma) + 1% Pen/Strep + 1% L-glutamine. All media were filter-sterilized through a 0.22 µm bottle top filter (Corning, New York, NY, USA). For sequential culture medium changes, small molecules and growth factors were added to the base media immediately before daily exchange. Media switches were as follows: days 0–3: STEMdiff™ Definitive Endoderm Kit ([…], Vancouver, Canada) used following manufacturer instructions; days 4–6: M1 medium + 50 ng/mL KGF (Peprotech, London, UK) + 1:50,000 ITS-X (Invitrogen, Carlsbad, CA, USA); days 7–8: M1 medium + 50 ng/mL KGF + 0.25 µM Sant1 (Sigma) + […] Retinoic acid (RA) (Sigma) + 500 nM PdBU (Millipore, Berlington, MA, United States) + 1:200 ITS-X + 200 nM LDN193189 (only Day 7) (Sigma); days 9–13: M1 medium + 50 ng/mL KGF + 0.25 µM Sant1 + 100 nM RA + 1:200 ITS-X; days 14–18: M2 medium + 0.25 µM Sant1 + 100 nM RA + 1 µM XXI (Millipore) + 10 µM Alk5i II (Selleckchem, Munich, Germany) + 1 µM L-3,30,5-Triiodothyronine (T3) (Sigma) + 20 ng/mL Betacellulin (R&D, Minneapolis, MN, USA) + 1:200 ITS-X.
(§3) The Insulin ELISA (Ultra Sensitive) was used to quantify insulin levels in control and treated organoids and isolated islets from the mouse pancreas (Crystal Chem, Downers Grove, IL, USA). Islets were homogenized in lysis buffer. Obtained buffer lysates and medium samples (after GSIS) were analyzed for total protein level and subsequently processed following the manufacturer’s protocol.

isolated mouse islets = experiment: Insulin secretion assay in isolated mouse islets (ELISA, immunostaining); type: cell-based; parameters: key to insulin secretion (ELISA): ↑: moderate; ↑↑: most potent; details: Table 2, Isolated islets
Description: as §3
Mice (male, initially 12 weeks old) were sacrificed by cervical vertebral dislocation. Before starting the incision, their bodies were sprayed with 70% EtOH. A hemostatic clamp was placed on both sides of the small intestine, leaving a small pocket to absorb the collagenase solution into the intestine. Next, 3 mL of cold collagenase solution was introduced into the pancreas through the bile duct. The pancreas was removed from the body and placed in a falcon tube containing 2 mL of collagenase solution. The tube was placed in a water bath at 37 °C. It was incubated for 13 min. At the end of this time, the falcon was shaken vigorously. The collagenase was inactivated with FBS. The sample was centrifuged for 30 s (300× g). This step was repeated 3 times. HBSS was then added to the sample and centrifuged two more times at the same speed as before. After the last centrifugation, HBSS was removed and Percoll (1.045 g/mL) (Sigma-Aldrich) was added. The Percoll solution was left to sediment for 5 min. After this time, the islets were collected from the bottom of the falcon. The step was repeated 3 times. Finally, islets were cultured in RPMI-1640 (Pan Biotech) supplemented with 2 mM L-glutamine (Gibco), 10% fetal bovine serum (FBS) and 1% penicillin/streptomycin and the culture medium was changed daily.
The presence of insulin, C-peptide, glucagon, Pdx-1 and Nkx6.1 was assessed in isolated mouse islets. Islets were fixed in PFA (3.8%) for 30 min, washed with PBS and 0.15% Triton X-100 was added for 1.5 h, then washed again with PBS and samples were transferred to 1% BSA + 0.05% Triton X-100 solution for 3 h. After this time, islets were incubated with primary antibody for 12 h at 4 °C. The secondary antibody was then added for 3 h. Next, the islets were incubated for 10 min with Hoechst33342. After incubation, at 37 °C, in the dark, the samples were washed twice with HBSS, the slide was transferred to a microscope table and the cells were visualized under a Zeiss LSM 880 confocal microscope (Carl Zeiss, Jena, Germany) with a 63× immersion objective. Images were analyzed by Zeiss ZEN Software.

[6] = system: adult human pancreatic beta cells; parameters: method as in PMID 34335466; details: cited from earlier work
INS-1E and MIN6 cells [7] = experiment: MTT cytotoxicity and cell survival assay, β-cell lines; details: Table 2, Cell lines
mTOR = details: cited from earlier work
[8] = DYRK1A 0.5 µM, ATP 128 µM, DYRKtide 1 mM

## NS(=O)(=O)c1ccc(-c2cnc3[nH]cc(-c4cccnc4)c3c2)cc1 [AC12, 4-(3-(pyridin-3-yl)-1H-pyrrolo[2,3-b]pyridin-5-yl)benzenesulfonamide]
DYRK1A kinase domain
  Kd: 380 ± 60 nM
DYRK1A [1]; [8]
  Ki: 100 ± 30 nM
DYRK1A [1]; phosphorylation of substrate peptide
  Ki: < 200 nM

## COc1ccc(N)cc1-c1cnc(N)c(C(=O)c2cccnc2)n1 [AC22, (3-azanyl-6-(5-azanyl-2-methoxy-phenyl)pyrazin-2-yl)-pyridin-3-yl-methanone]
DYRK1A kinase domain
  Kd: 2600 ± 400 nM
DYRK1A [1]; [8]
  Ki: 1600 ± 400 nM
NFAT
  NFAT-controlled luciferase activity: induced NFAT-controlled luciferase activity in a dose-dependent manner
INS-1E and MIN6 cells [2]; 5 μM, vs untreated cells
  induction of β-cell proliferation (Ki67 labeling of insulin-labeled cells): most potent in inducing β-cell proliferation
DYRK1A [3]; DYRK1A, Figure 1, ref Czarna et al. [44]
  IC50: > 6 µM
DYRK1A [3]; Table S1, Cook assay, data previously reported, ref 1 (Czarna et al. 2018)
  Ki: > 2800 nM

## CN1C(=O)[C@H]2CCC[C@H]2N(C2CCCC2)c2nc(Nc3ccc(C(N)=O)cc3)ncc21 [AC23, 4-(((6aS,9aR)-10-cyclopentyl-5-methyl-6-oxo-5,6,6a,7,8,9,9a,10-octahydrocyclopenta[e]pyrimido[5,4-b][1, 4]diazepin-2-yl)amino)benzamide]
DYRK1A kinase domain
  Kd: 12900 ± 2600 nM
DYRK1A [1]; [8]
  Ki: 1200 ± 400 nM
NFAT
  NFAT-controlled luciferase activity: induced NFAT-controlled luciferase activity in a dose-dependent manner

## C=CC(=O)Nc1ccc(C(=O)c2sc(Nc3ccc(N4CCN(C)CC4)cc3OC)nc2N)cc1 [AC25, N-(4-((4-azanyl-2-((2-methoxy-4-(4-methylpiperazin-1-yl)phenyl)amino)-1,3-thiazol-5-yl)carbonyl)phenyl)propenamide]
DYRK1A kinase domain
  Kd: 1100 ± 600 nM
DYRK1A [1]; [8]
  Ki: 1000 ± 300 nM
NFAT
  NFAT-controlled luciferase activity: did not promote NFAT-activity

## C=CC(=O)Nc1cccc(C(=O)c2sc(Nc3ccc(N4CCN(C)CC4)cc3)nc2N)c1 [AC28]
DYRK1A kinase domain
  Kd: 27000 ± 17000 nM
DYRK1A [1]; [8]
  Ki: 3000 ± 1000 nM
NFAT
  NFAT-controlled luciferase activity: did not promote NFAT-activity

## COc1ccc2c(c1)[nH]c1c(C)nccc12 [Harmine, reference compound]
NFAT
  NFAT-controlled luciferase activity: induced NFAT-controlled luciferase activity in a dose-dependent manner
INS-1E cells
  effect on viability of INS-1E cells: did not show adverse effects
DYRK1A in MIN6 cell line; MIN6, 24 h with inhibitor, control 74%
  DYRK1A (fluorescence-positive cells, flow cytometry): 27.7%
DYRK1A in MIN6 cell line; MIN6, vs untreated control
  DYRK1A signal in confocal imaging: reduced
INS-1E and MIN6 cells [4]; GSIS, compound alone
  insulin/C-peptide secretion: enhanced insulin secretion and increases C-peptide levels
INS-1E and MIN6 cells [4]; Table 2, Cell lines
  C-peptide+: ↑
  glucagon+: ↑↑
  insulin+: ↑
[5]; GSIS, compared with untreated control cells
  insulin release: markedly increased insulin release
[5]; Table 2, hiPSC
  insulin secretion (ELISA): ↑↑
Isolated mouse islets
  insulin secretion (ELISA): ↑
[6]
  increase in proliferation: 2–4%
INS-1E and MIN6 cells [7]
  toxicity: no

## Cc1cccc(-c2n[nH]cc2-c2ccc3ncccc3n2)n1 [RepSox, 2-(3-(6-Methyl-2-pyridinyl)-1H-pyrazol-4-yl)-1,5-naphthyridine, reference compound]
INS-1E and MIN6 cells [2]; TGF-β inhibitor alone
  effect on cell proliferation: did not affect cell proliferation

## Nc1ccc(-c2ccc3ncc4ccc(=O)n(-c5cccc(C(F)(F)F)c5)c4c3c2)cn1 [Torin2, 9-(6-Aminopyridin-3-yl)-1-(3-(trifluoromethyl)phenyl) benzo [h][1, 6] naphthyridin-2 (1 H)-one, reference compound]
NFAT
  NFAT-controlled luciferase activity: did not promote NFAT-activity
mTOR
  potency towards mTOR compared to AC27: 40 times
